{"source": "patent US20210308089A1", "about": "“METHODS OF TREATING AND/OR PREVENTING VIRAL INFECTIONS AND/OR DISEASES CAUSED BY VIRUSES IN A SUBJECT IN NEED THEREOF” (priority 2020, published 2021)", "test_system": "patients of the REDUCE-IT and earlier EPA placebo-controlled trials", "test": "Example 3: adverse events by risk ratio, icosapent ethyl vs placebo (candidate categories; infectious disease terms of interest)", "conditions": "R-I", "data": [{"smiles": "CC/C=C\\C/C=C\\C/C=C\\C/C=C\\C/C=C\\CCCC(=O)OCC", "note": "[icosapent ethyl, eicosapentaenoic acid ethyl ester]", "values": [{"measurement": "ARR: Bone Fractures (AE table)", "value": 0.0, "unit": "%"}, {"measurement": "ARR: Bronchiectasis (AE table)", "value": "−0.1", "unit": "%"}, {"measurement": "ARR: Bronchitis chronic (AE table)", "value": "−0.1", "unit": "%"}, {"measurement": "ARR: CKD (AE table)", "value": 0.1, "unit": "%"}, {"measurement": "ARR: COPD (AE table)", "value": 0.2, "unit": "%"}, {"measurement": "ARR: Carotid bruit (AE table)", "value": "−0.3", "unit": "%"}, {"measurement": "ARR: Cholestasis (AE table)", "value": 0.0, "unit": "%"}, {"measurement": "ARR: Chrohn's Disease (AE table)", "value": "−0.0", "unit": "%"}, {"measurement": "ARR: Cognitive Decline: Attention disorders and disturbances (AE table)", "value": 0.0, "unit": "%"}, {"measurement": "ARR: Cognitive Decline: Cognitive and attention disorders and disturbances (AE table)", "value": 0.0, "unit": "%"}, {"measurement": "ARR: Cough (AE table)", "value": 0.0, "unit": "%"}, {"measurement": "ARR: Decreased Appetite (AE table)", "value": 0.5, "unit": "%"}, {"measurement": "ARR: Deep Venous Thromboembolism (AE table)", "value": "−0.1", "unit": "%"}, {"measurement": "ARR: Depression: Depressed mood disorders and disturbances (AE table)", "value": 0.3, "unit": "%"}, {"measurement": "ARR: Depression: Depressive disorders (AE table)", "value": 0.3, "unit": "%"}, {"measurement": "ARR: Depression: Depressive disorders - Agitated depression (AE table)", "value": 0.0, "unit": "%"}, {"measurement": "ARR: Depression: Depressive disorders - Depression (AE table)", "value": 0.2, "unit": "%"}, {"measurement": "ARR: Depression: Depressive disorders - Major depression (AE table)", "value": 0.0, "unit": "%"}, {"measurement": "ARR: Depression: Depressive disorders - Persistent depressive disorder (AE table)", "value": 0.0, "unit": "%"}, {"measurement": "ARR: Depression: Mood alterations - Depressed mood (AE table)", "value": 0.0, "unit": "%"}, {"measurement": "ARR: Depression: Mood alterations - Depressive symptom (AE table)", "value": "−0.0", "unit": "%"}, {"measurement": "ARR: Depression: Mood alterations with depressive symptoms (AE table)", "value": "−0.0", "unit": "%"}, {"measurement": "ARR: Dermatitis psoriasiform (AE table)", "value": 0.0, "unit": "%"}, {"measurement": "ARR: Dermatitis, allergic (AE table)", "value": "−0.2", "unit": "%"}, {"measurement": "ARR: Diabetic Nephropathy (AE table)", "value": "−0.0", "unit": "%"}, {"measurement": "ARR: ESRD (AE table)", "value": "−0.0", "unit": "%"}, {"measurement": "ARR: Ear infection (AE table)", "value": "−0.2", "unit": "%"}, {"measurement": "ARR: Embolism and Thrombosis (AE table)", "value": 0.1, "unit": "%"}, {"measurement": "ARR: Emphysema (AE table)", "value": "−0.2", "unit": "%"}, {"measurement": "ARR: Epilepsy (AE table)", "value": 0.0, "unit": "%"}, {"measurement": "ARR: Erectile dysfunction (AE table)", "value": "−0.4", "unit": "%"}, {"measurement": "ARR: Furuncle (AE table)", "value": "−0.1", "unit": "%"}, {"measurement": "ARR: Gastroenteritis, viral (AE table)", "value": "−0.3", "unit": "%"}, {"measurement": "ARR: Gastroesophageal reflux (AE table)", "value": "−0.1", "unit": "%"}, {"measurement": "ARR: Gingivitis (AE table)", "value": "−0.1", "unit": "%"}, {"measurement": "ARR: Glomerulonephritis and Nephrotic Syndrome (AE table)", "value": "−0.1", "unit": "%"}, {"measurement": "ARR: Guttate psoriasis (AE table)", "value": 0.0, "unit": "%"}, {"measurement": "ARR: Helicobacter infection (AE table)", "value": "−0.1", "unit": "%"}, {"measurement": "ARR: Hepatitis C (AE table)", "value": 0.0, "unit": "%"}, {"measurement": "ARR: Herpes Zoster (AE table)", "value": "−0.1", "unit": "%"}, {"measurement": "ARR: Herpes simplex (AE table)", "value": "−0.1", "unit": "%"}, {"measurement": "ARR: Hyperglycemia (AE table)", "value": "−0.5", "unit": "%"}, {"measurement": "ARR: Hyperkalemia (AE table)", "value": "−0.6", "unit": "%"}, {"measurement": "ARR: Hypertension (AE table)", "value": "−0.6", "unit": "%"}, {"measurement": "ARR: Hypertensive Crisis (AE Table)", "value": "−0.3", "unit": "%"}, {"measurement": "ARR: Hypokalemia (AE table)", "value": 0.1, "unit": "%"}, {"measurement": "ARR: Hypomagnesemia (AE table)", "value": "−0.3", "unit": "%"}, {"measurement": "ARR: Infected bite (AE table)", "value": "−0.0", "unit": "%"}, {"measurement": "ARR: Influenza (AE table)", "value": "−0.2", "unit": "%"}, {"measurement": "ARR: Influenza like illness (AE table)", "value": "−0.1", "unit": "%"}, {"measurement": "ARR: Jaundice cholestatic (AE table)", "value": 0.1, "unit": "%"}, {"measurement": "ARR: Large intestine polyps (AE table)", "value": "−0.2", "unit": "%"}, {"measurement": "ARR: Limb Fractures and Dislocations (AE table)", "value": "−0.1", "unit": "%"}, {"measurement": "ARR: Lupus (AE table)", "value": "−0.0", "unit": "%"}, {"measurement": "ARR: Microalbuminuria (AE table)", "value": "−0.3", "unit": "%"}, {"measurement": "ARR: Migraine (AE table)", "value": 0.2, "unit": "%"}, {"measurement": "ARR: Mucosal inflammation (AE table)", "value": "−0.0", "unit": "%"}, {"measurement": "ARR: Multiple Sclerosis (AE table)", "value": "−0.0", "unit": "%"}, {"measurement": "ARR: Muscle spasms (AE table)", "value": "−1.1", "unit": "%"}, {"measurement": "ARR: NASH (AE table)", "value": "−0.1", "unit": "%"}, {"measurement": "ARR: NASH for b/l NFS >0.675 (AE table)", "value": "−0.4", "unit": "%"}, {"measurement": "ARR: NASH+Hepatic Steatosis for NFS >0.675 (AE table)", "value": "−0.5", "unit": "%"}, {"measurement": "ARR: Nasopharyngitis, Mild Severity (AE table)", "value": "−0.2", "unit": "%"}, {"measurement": "ARR: Nephrolithiasis (AE table)", "value": 0.1, "unit": "%"}, {"measurement": "ARR: Nephropathies (AE table)", "value": "−0.2", "unit": "%"}, {"measurement": "ARR: Nephrotic Syndrome (AE table)", "value": "−0.0", "unit": "%"}, {"measurement": "ARR: Orthopnea (AE table)", "value": "−0.1", "unit": "%"}, {"measurement": "ARR: PTSD (AE table)", "value": "−0.0", "unit": "%"}, {"measurement": "ARR: Pancytopenia (AE table)", "value": "−0.1", "unit": "%"}, {"measurement": "ARR: Pneumonia (AE table)", "value": "−0.3", "unit": "%"}, {"measurement": "ARR: Proteinuria (AE table)", "value": "−0.2", "unit": "%"}, {"measurement": "ARR: Psoriasis (AE table)", "value": 0.3, "unit": "%"}, {"measurement": "ARR: Psoriatic Conditions (AE table)", "value": 0.3, "unit": "%"}, {"measurement": "ARR: Psychosis: Psychotic disorder NEC (AE table)", "value": "−0.0", "unit": "%"}, {"measurement": "ARR: Pulmonary Edema (AE table)", "value": "−0.2", "unit": "%"}, {"measurement": "ARR: Respiratory Failure (AE table)", "value": "−0.0", "unit": "%"}, {"measurement": "ARR: Respiratory tract infection (AE table)", "value": "−0.1", "unit": "%"}, {"measurement": "ARR: Rheumatoid Arthritis (AE table)", "value": "−0.1", "unit": "%"}, {"measurement": "ARR: Rhinitis (AE table)", "value": "−0.1", "unit": "%"}, {"measurement": "ARR: Schizophrenia NEC (AE table)", "value": "−0.0", "unit": "%"}, {"measurement": "ARR: Sepsis (AE table)", "value": "−0.2", "unit": "%"}, {"measurement": "ARR: Severe chronic obstructive pulmonary disease (AE table)", "value": "−0.1", "unit": "%"}, {"measurement": "ARR: Severe dermatitis, allergic (AE table)", "value": "−0.1", "unit": "%"}, {"measurement": "ARR: Severe gastroenteritis (AE table)", "value": "−0.1", "unit": "%"}, {"measurement": "ARR: Severe sepsis (AE table)", "value": "−0.2", "unit": "%"}, {"measurement": "ARR: Severe systemic inflammatory response syndrome (AE table)", "value": "−0.1", "unit": "%"}, {"measurement": "ARR: Severe urinary tract infection (AE table)", "value": "−0.2", "unit": "%"}, {"measurement": "ARR: Systemic inflammatory response syndrome (AE table)", "value": "−0.1", "unit": "%"}, {"measurement": "ARR: Tooth infection (AE table)", "value": "−0.2", "unit": "%"}, {"measurement": "ARR: Ulcerative Colitis (AE table)", "value": "−0.0", "unit": "%"}, {"measurement": "ARR: Upper respiratory tract infection (AE table)", "value": "−0.2", "unit": "%"}, {"measurement": "ARR: Vascular hypertensive disorder (AE table)", "value": "−0.8", "unit": "%"}, {"measurement": "ARR: Vulvovaginal mycotic infection (AE table)", "value": "−0.1", "unit": "%"}, {"measurement": "ARR: Wheezing (AE table)", "value": "−0.3", "unit": "%"}, {"measurement": "NNT: ADHD (AE table)", "value": "−8362005"}, {"measurement": "NNT: Allergic sinusitis (AE table)", "value": 2046}, {"measurement": "NNT: Alzheimer's Disease (AE table)", "value": "−3344802"}, {"measurement": "NNT: Asthma (AE table)", "value": "−1019"}, {"measurement": "NNT: Atelectasis (AE table)", "value": 372}, {"measurement": "NNT: Bipolar Disease (AE table)", "value": 2045}, {"measurement": "NNT: Blood CPK increased (AE table)", "value": 164}, {"measurement": "NNT: Blood glucose increased (AE table)", "value": 682}, {"measurement": "NNT: Bone Fractures (AE table)", "value": "−4088"}, {"measurement": "NNT: Bronchiectasis (AE table)", "value": 1364}, {"measurement": "NNT: Bronchitis chronic (AE table)", "value": 1023}, {"measurement": "NNT: CKD (AE table)", "value": "−680"}, {"measurement": "NNT: COPD (AE table)", "value": "−453"}]}]}
